Where a name gives a salt, the structure may show the parent alone.
System: ApoB secretion, HepG2 cells
Assay: Quantification of the secretion of ApoB (HepG2 cells, immunoprecipitation, scintillation counting)
Assay type: cell-based
Conditions: 24 hours of incubation; for IC50: Homo sapiens
Method in brief: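 HepG2 cells in MEM Rega 3 with 10% FCS were treated at 70% confluency with compound (DMSO 0.4% final) for 24 h. Medium ApoB was immunoprecipitated with sheep anti-apoB then rabbit anti-sheep antibody (24 h each, 8° C), and pellet radioactivity was counted by liquid scintillation to give IC50.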

SMILES | IC50 (HepG2, 24 h) [nM] | other results
COC(=O)C(c1ccccc1)N1CCN(c2ccc(NC(=O)c3ccccc3-c3ccc(C(F)(F)F)cc3)c(C(F)(F)F)c2)CC1 (stereo not drawn) [Co. No. 206] | 783 | 
CC(C)CNC(=O)C(c1ccccc1)N1CCC(c2ccc(NC(=O)c3ccccc3-c3ccc(C(F)(F)F)cc3)cc2)CC1 (stereo not drawn) [Co. No. 74] | ≤ 30 | 
C#CCOC(=O)C(c1ccccc1)N1CCC(c2ccc(NC(=O)c3ccccc3-c3ccc(C(F)(F)F)cc3)cc2)CC1 (stereo not drawn) [Co. No. 225] | 67.6 | 
O=C(Nc1ccc(C2CCN(C(C(=O)NC3CC3)c3ccccc3)CC2)cc1)c1ccccc1-c1ccc(C(F)(F)F)cc1 (stereo not drawn) [Co. No. 72] | ≤ 30 | 
CCCNC(=O)C(c1ccccc1)C1CCN(c2ccc(NC(=O)c3ccccc3-c3ccc(C(C)(C)C)cc3)cc2)CC1 (stereo not drawn) [Co. No. 132] | 50.2 | 
O=C(Nc1ccc(N2CCN(C(C(=O)OCc3ccccc3)c3ccccc3)CC2)cc1)c1ccccc1-c1ccccc1 (stereo not drawn) [Co. No. 147] | 287 | 
O=C(Nc1ccc(N2CCN(C(C(=O)Nc3ccccc3)c3ccccc3)CC2)cc1)c1ccccc1-c1ccccc1 (stereo not drawn) [Co. No. 145] | 185 | 
O=C(Nc1ccc(N2CCN(C(C(=O)NCc3cccnc3)c3ccccc3)CC2)cc1)c1ccccc1-c1ccc(C(F)(F)F)cc1 (stereo not drawn) [Co. No. 59] | ≤ 30 | 
O=C(Nc1ccc(N2CCC(C(C(=O)NCc3ccccc3)c3ccccc3)CC2)cc1)c1cccc2c1Cc1ccccc1-2 (stereo not drawn) [Co. No. 4] | ≥ 3000 | 
COC(=O)C(c1ccccc1)N1CCN(c2ccc(NC(=O)c3ccccc3-c3ccc(C(F)(F)F)cc3)cc2Cl)CC1 (stereo not drawn) [Co. No. 205] | 47.5 | 
COC(=O)C(c1ccccc1)N1CCN(c2ccc(NC(=O)c3cccc(C)c3-c3ccc(C(F)(F)F)cc3)cc2)CC1 (stereo not drawn) [Co. No. 190] | 6.41 | 
C=CCOC(=O)C(c1ccccc1)N1CCN(c2ccc(NC(=O)c3ccccc3-c3ccc(C(F)(F)F)cc3)cc2)CC1 (stereo not drawn) [Co. No. 144] | 202 | 
O=C(Nc1ccc(N2CCC(C(C(=O)Nc3ccccc3)c3ccccc3)CC2)cc1)c1ccccc1-c1ccccc1 (stereo not drawn) [Co. No. 30] | 165 | 
COC(=O)C(c1ccccc1)C1CCN(c2ccc(NC(=O)c3cccc(C)c3-c3ccc(C(C)C)cc3)cc2)CC1 (stereo not drawn) [Co. No. 235] | < 30 | 
O=C(Nc1ccc(C2=CCN(C(C(=O)Nc3ccccc3)c3ccccc3)CC2)cc1)c1ccccc1-c1ccc(C(F)(F)F)cc1 (stereo not drawn) [Co. No. 164] | 100 | 
CC(C)NC(=O)C(c1ccccc1)C1CCN(c2ccc(NC(=O)c3ccccc3-c3ccccc3)cc2)CC1 (stereo not drawn) [Co. No. 22] | 104 | 
CC(C)=CCOC(=O)C(c1ccccc1)N1CCC(c2ccc(NC(=O)c3ccccc3-c3ccc(C(F)(F)F)cc3)cc2)CC1 (stereo not drawn) [Co. No. 220] | < 30 | 
CC(C)CCOC(=O)C(c1ccccc1)C1CCN(c2ccc(NC(=O)c3ccccc3-c3ccc(C(F)(F)F)cc3)cc2)CC1 (stereo not drawn) [Co. No. 249] | > 3000 | 
COC(=O)C(c1ccccc1)N1CCCN(c2ccc(NC(=O)c3ccccc3-c3ccc(C(F)(F)F)cc3)cc2)CC1 (stereo not drawn) [Co. No. 119] | 175 | 

SMILES | IC50 (HepG2, 24 h) [nM] | other results
CCNC(=O)C(c1ccccc1)C1CCN(c2ccc(NC(=O)c3ccccc3-c3ccc4ccccc4c3)cc2)CC1 (stereo not drawn) [Co. No. 95] | ≤ 30 | 
O=C(Nc1ccc(C2CCN(C(C(=O)NCc3cccnc3)c3ccccc3)CC2)cc1)c1ccccc1-c1ccc(C(F)(F)F)cc1 (stereo not drawn) [Co. No. 76] | 51.8 | 
CCCCCNC(=O)C(CN1CCN(c2ccc(NC(=O)c3ccccc3-c3ccc(C(F)(F)F)cc3)cc2)CC1)c1ccccc1 (stereo not drawn) [Co. No. 65] | 240 | 
COC(=O)C(c1ccccc1)C1CCN(c2ccc(NC(=O)c3ccccc3-c3ccc(C(F)(F)F)cc3)cc2)CC1 (stereo not drawn) [Co. No. 37, methyl α-phenyl-1-[4-[[[4′-(trifluoromethyl)[1,1′-biphenyl]-2-yl]carbonyl]amino]phenyl]-4-piperidineacetate trifluoroacetate (1:1)] |  | pIC50 (listed as 37): 7.507
COc1ccccc1-c1ccccc1C(=O)Nc1ccc(N2CCC(C(C(=O)NCc3ccccc3)c3ccccc3)CC2)cc1 (stereo not drawn) [Co. No. 101] | 207 | 
CCNC(=O)C(c1ccccc1)N1CCC(c2ccc(NC(=O)c3ccccc3-c3ccccc3)cc2)CC1 (stereo not drawn) [Co. No. 149] | 41.7 | 
CCCOC(=O)C(c1ccccc1)N1CCCN(c2ccc(NC(=O)c3ccccc3-c3ccc(C(F)(F)F)cc3)cc2)CC1 (stereo not drawn) [Co. No. 121] | 2110 | 
COC(=O)C(c1ccccc1)N1CCN(c2ccc(NC(=O)c3ccccc3-c3ccc(C(F)(F)F)cc3)c(F)c2)CC1 (stereo not drawn) [Co. No. 212] | < 30 | 
O=C(Nc1ccc(N2CCC(C(C(=O)OCCCc3ccccc3)c3ccccc3)CC2)cc1)c1ccccc1-c1ccc(C(F)(F)F)cc1 (stereo not drawn) [Co. No. 246] | 173 | 
COC(=O)C(c1ccccc1)C1CCN(c2ccc(NC(=O)c3cccc(C)c3-c3ccc(C(C)(C)C)cc3)cc2)CC1 (stereo not drawn) [Co. No. 237] | < 30 | 
COC(=O)C(c1ccccc1)C1CCN(c2ccc(NC(=O)c3ccccc3-c3ccccc3)cc2)CC1 (stereo not drawn) [Co. No. 157] | 107 | 
COC(=O)C(c1ccccc1)N1CCN(c2ccc(NC(=O)c3c(C)cccc3-c3ccc(C(F)(F)F)cc3)cc2)CC1 (stereo not drawn) [Co. No. 188] | 10 | 
CCNC(=O)C(c1ccccc1)C1CCN(c2ccc(NC(=O)c3ccccc3-c3cccc(Cl)c3)cc2)CC1 (stereo not drawn) [Co. No. 86] | 84.1 | 
O=C(Nc1ccc(N2CCC(C(C(=O)NCc3ccccc3)c3ccccc3)CC2)cc1)c1ccccc1-c1cccc(C(F)(F)F)c1 (stereo not drawn) [Co. No. 105] | 90.6 | 
CC(C)(C)c1ccc(-c2ccccc2C(=O)Nc2ccc(N3CCC(C(C(=O)NCc4ccccc4)c4ccccc4)CC3)cc2)cc1 (stereo not drawn) [Co. No. 53] | 1.84 | 
COC(=O)C(c1ccccc1)N1CCN(c2ccc(NC(=O)c3ccccc3-c3ccc(C(F)(F)F)cc3)c(C)c2)CC1 (stereo not drawn) [Co. No. 208] | 7.48 | 
O=C(Nc1ccc(N2CCN(C(C(=O)Oc3ccccc3)c3ccccc3)CC2)cc1)c1ccccc1-c1ccc(C(F)(F)F)cc1 (stereo not drawn) [Co. No. 158] | 21.3 | 
O=C(Nc1ccc(N2CCC(C(C(=O)Nc3ccccc3)c3ccccc3)CC2)cc1)c1ccccc1-c1ccccc1Cl (stereo not drawn) [Co. No. 115] | 1710 | 
O=C(Nc1ccc(N2CCC(C(C(=O)OCc3ccccc3)c3ccccc3)CC2)cc1)c1ccccc1-c1ccc(C(F)(F)F)cc1 (stereo not drawn) [Co. No. 174] | 92.3 | 

SMILES | IC50 (HepG2, 24 h) [nM] | other results
COC(=O)N(c1ccccc1)C1CCN(c2ccc(NC(=O)c3ccccc3-c3ccc(C(F)(F)F)cc3)cc2)CC1 [Co. No. 251] |  | IC50: 9.64 nM
O=C(Nc1ccc(N2CCN(C(C(=O)Nc3ccccc3)c3ccccc3)CC2)cc1)c1ccccc1-c1ccc(C(F)(F)F)cc1 (stereo not drawn) [Co. No. 140] | 20.3 | 
O=C(Nc1ccc(N2CCC(C(C(=O)Nc3ccccc3)c3ccccc3)CC2)cc1)c1ccccc1-c1ccc(Cl)c(Cl)c1 (stereo not drawn) [Co. No. 110] | 158 | 
Cc1cccc(-c2ccccc2C(=O)Nc2ccc(N3CCC(C(C(=O)Nc4ccccc4)c4ccccc4)CC3)cc2)c1 (stereo not drawn) [Co. No. 112] | 434 | 
O=C(Nc1ccc(C2CCN(C(C(=O)OCc3ccccc3)c3ccccc3)CC2)cc1)c1ccccc1-c1ccccc1 (stereo not drawn) [Co. No. 153] | 1550 | 
COC(=O)C(c1ccccc1)N1CCN(c2ccc(NC(=O)c3cc(OC)ccc3-c3ccc(C(F)(F)F)cc3)cc2)CC1 (stereo not drawn) [Co. No. 186] | 200 | 
CC(=O)N(c1ccccc1)C1CCN(c2ccc(NC(=O)c3ccccc3-c3ccc(C(F)(F)F)cc3)cc2)CC1 [Co. No. 253] |  | IC50: 130 nM
C=CCOC(=O)C(c1ccccc1)N1CCC(c2ccc(NC(=O)c3ccccc3-c3ccc(C(F)(F)F)cc3)cc2)CC1 (stereo not drawn) [Co. No. 152] | 94.4 | 
O=C(Nc1ccc(N2CCC(C(C(=O)NCc3ccccc3)c3ccc(F)cc3)CC2)cc1)c1ccccc1-c1ccc(C(F)(F)F)cc1 (stereo not drawn) [Co. No. 254] | 28.8 | 
Cc1ccccc1-c1ccccc1C(=O)Nc1ccc(N2CCC(C(C(=O)NCc3ccccc3)c3ccccc3)CC2)cc1 (stereo not drawn) [Co. No. 51] | 68.7 | 
CC(C)NC(=O)C(c1ccccc1)C1CCN(c2ccc(NC(=O)c3ccccc3COc3ccccc3)cc2)CC1 (stereo not drawn) [Co. No. 25] | 287 | 
C=CCNC(=O)C(c1ccccc1)N1CC=C(c2ccc(NC(=O)c3ccccc3-c3ccc(C(F)(F)F)cc3)cc2)CC1 (stereo not drawn) [Co. No. 165] | 33 | 
COC(=O)C(c1ccccc1)N1CCN(c2cc(F)c(NC(=O)c3ccccc3-c3ccc(C(F)(F)F)cc3)c(F)c2)CC1 (stereo not drawn) [Co. No. 204] | 428 | 
CC(C)NC(=O)C(c1ccccc1)C1CCN(c2ccc(NC(=O)c3ccccc3Oc3ccccc3)cc2)CC1 (stereo not drawn) [Co. No. 27] | 1300 | 
CCCNC(=O)C(c1ccccc1)C1CCN(c2ccc(NC(=O)c3ccccc3-c3ccc(F)cc3F)cc2)CC1 (stereo not drawn) [Co. No. 84, 2′,4′-difluoro-N-[4-[4-[2-oxo-1-phenyl-2-(propylamino)ethyl]-1-piperidinyl]phenyl]-[1,1′-biphenyl]-2-carboxamide] | 79.4 | 
CCNC(=O)C(c1ccccc1)N1CCN(c2ccc(NC(=O)c3c(F)cccc3-c3ccc(C(F)(F)F)cc3)cc2)CC1 (stereo not drawn) [Co. No. 196] | 100 | 
O=C(Nc1ccc(N2CCC(C(C(=O)NCc3ccccc3)c3ccccc3)CC2)cc1)c1ccccc1-c1cccc2ccccc12 (stereo not drawn) [Co. No. 136] | 148 | 
CCCNC(=O)C(c1ccccc1)C1CCN(c2ccc(NC(=O)c3ccccc3-c3ccc(F)cc3)cc2)CC1 (stereo not drawn) [Co. No. 44] | 1040 | 
CCCCNC(=O)C(c1ccccc1)N1CCC(c2ccc(NC(=O)c3ccccc3-c3ccc(C(F)(F)F)cc3)cc2)CC1 (stereo not drawn) [Co. No. 73] | 6.08 | 
